Data set [1] in a line: Hemato-chemical parameters and tolerability in treated mice. The data set is classed as in vivo. The settings on record: blood after euthanasia day 21; i.p. treatment day 1, 7, 14; means ± SD, n = 8. As for the experimental part:
(§1) Here, 1 × 10^6 A549/DX cells were mixed with 100 μl Matrigel implanted in 6-week-old female nu/nu BALB/C mice (Charles River Laboratories Italia, Calco, Italy), housed (5 per cage) under 12 h light/dark cycle, with food and drinking provided ad libitum. Tumor growth was measured daily by caliper, according to the equation (LxW2)/2, where L = tumor length and W = tumor width. When the tumor reached the volume of 50 mm^3, mice (n = 8/group) were randomized and treated as reported in the following groups, treated on day 1, 7, and 14 after randomization: (1) vehicle group (ctrl), treated intraperitoneally (i.p.) with 100 µL saline solution; (2) cis-Pt group, treated i.p. with 50 mg/kg cis-Pt, dissolved in 100 µL water/10% DMSO solution, according to Kopecka et al., 2015 [53]; (3) F397 group, treated i.p. with 750 nmoles of the compound, dissolved in 100 µL water/10% DMSO solution, corresponding to the maximum tolerated dose (not shown and Table 2); (4) F421 group, treated i.p. with 750 nmoles of the compound, dissolved in 100 µL water/10% DMSO solution i.p, corresponding to the maximum tolerated dose (not shown and Table 2); (5) cis-Pt/F397 group, treated i.p. with 50 mg/kg Cis-Pt and 750 nmoles of F397; (6) cis-Pt/F421 group, treated i.p. with 50 mg/kg cis-Pt and 750 nmoles of F421; (7) MK571 group, treated i.p. with 3 mg/kg MK571 dissolved in 100 µL water/10% DMSO solution, according to Jones et al., 1989 [56]; (8) MK571/F397 group, treated i.p. with 3 mg/kg MK571 and 750 nmoles of F397; (9) MK571/F421 group, treated i.p. with 3 mg/kg MK571 and 750 nmoles of F421. Tumor volumes were monitored daily. Animals were euthanized at day 21 after randomization with zolazepam (0.2 mL/kg) and xylazine (16 mg/kg). Lactate dehydrogenase (LDH), aspartate aminotransferase (AST), alanine aminotransferase (ALT), alkaline phosphatase (AP), creatinine, and creatine phosphokinase (CPK) were measured on blood samples collected immediately after euthanasia, using commercially available kits from Beckman Coulter Inc. (Beckman Coulter, Miami, FL, USA).

For data set [2], the system named is A549/DX cells. Put plainly: In vivo tumor growth of A549/DX xenografts. Also noted: species or system nu/nu BALB/C mice. Conditions: A549/DX xenografts, 50 mg/kg cis-Pt i.p. On the procedure:
In order to translate in vivo the capability of F397, F400, and F421 to act as “sensitizers”, A549/DX cells were implanted in immune-deficient BALB/C mice, and once the tumor reached the volume of 50 mm^3, the mice were randomized and treated […] with the vehicle (saline solution) and/or cis-Pt.
as §1

Data set [3] has as its system A549/DX cells. Put plainly: Cell viability (MTT) of A549/DX cells at 72 h, alone and in co-administration. The data set is classed as cell-based, human. On the procedure:
Indeed, the accurate detection of cell viability in A549 cells was critical in calculating the SR in a reliable manner.
First, we wondered if there was a correlation between the inhibition of the MRP1 protein and the CS properties of the compounds.
(§2) The determination of cell growth was performed using an MTT assay at 24 or 72 h. On day 1, 10,000 cells/well were seeded into 96-well plates in a volume of 100 μL. […] In all the experiments, the various drug solvents (ethanol, DMSO) were added in each control to evaluate a possible solvent cytotoxicity. After the established incubation time with drugs, 10 μL MTT (0.5 mg/mL) was added to each well, and after 3 h incubation at 37°C, the supernatant was removed. The formazan crystals were solubilized using 100 μL of DMSO and the absorbance values at 570 and 630 nm were determined on the microplate reader Victor 3 from PerkinElmer Life Sciences. The absorbance of the untreated cells was considered equal to 100% cell viability; the viability of cells measured in each experimental condition was expressed as a percentage of viable cells in the considered condition vs. the viability of the untreated cells.

For another data set, the system named is MDCK-MRP1 cells. Briefly: Antiproliferative MTT assay in MDCK-wt and MDCK-MRP1 cells, selectivity ratio. The data set is classed as cell-based, canine. Conditions: EC50 of MDCK cells/EC50 of MDCK-MRP1 cells. On the procedure: Within the search for novel CS agents acting on MRP1 proteins, the compounds selected among the different series of sigma-2 ligands were investigated for their activity at MRP1, paralleled with their cytotoxicity in the parental Madin–Darby canine kidney (MDCK-wt) cells and in the MDR-derived cells (MDCK-MRP1) for the determination of their SR (EC50 parental cells/EC50 MDR cells). The activity at the MRP1 pump was determined measuring the transport inhibition of the pro-fluorescent probe Calcein-AM, an MRP1 substrate, in the MRP1-overexpressing cell line (MDCK-MRP1) by the in vitro biological assay usually performed to study an MRP1 interaction. […] The SR was measured as the EC50 of the MDCK cells/EC50 of the MDCK-MRP1 cells.
as §2
On the technique in general: Tetrazolium assays rely on reduction of a dye to a coloured formazan, in cell work by metabolically active cells.

The target in the next data set is MRP1 (Homo sapiens, UniProt P33527). Put plainly: Calcein-AM transport inhibition in MDCK-MRP1 cells (MRP1 activity).
Chain of MRP1 (P33527 whole entry): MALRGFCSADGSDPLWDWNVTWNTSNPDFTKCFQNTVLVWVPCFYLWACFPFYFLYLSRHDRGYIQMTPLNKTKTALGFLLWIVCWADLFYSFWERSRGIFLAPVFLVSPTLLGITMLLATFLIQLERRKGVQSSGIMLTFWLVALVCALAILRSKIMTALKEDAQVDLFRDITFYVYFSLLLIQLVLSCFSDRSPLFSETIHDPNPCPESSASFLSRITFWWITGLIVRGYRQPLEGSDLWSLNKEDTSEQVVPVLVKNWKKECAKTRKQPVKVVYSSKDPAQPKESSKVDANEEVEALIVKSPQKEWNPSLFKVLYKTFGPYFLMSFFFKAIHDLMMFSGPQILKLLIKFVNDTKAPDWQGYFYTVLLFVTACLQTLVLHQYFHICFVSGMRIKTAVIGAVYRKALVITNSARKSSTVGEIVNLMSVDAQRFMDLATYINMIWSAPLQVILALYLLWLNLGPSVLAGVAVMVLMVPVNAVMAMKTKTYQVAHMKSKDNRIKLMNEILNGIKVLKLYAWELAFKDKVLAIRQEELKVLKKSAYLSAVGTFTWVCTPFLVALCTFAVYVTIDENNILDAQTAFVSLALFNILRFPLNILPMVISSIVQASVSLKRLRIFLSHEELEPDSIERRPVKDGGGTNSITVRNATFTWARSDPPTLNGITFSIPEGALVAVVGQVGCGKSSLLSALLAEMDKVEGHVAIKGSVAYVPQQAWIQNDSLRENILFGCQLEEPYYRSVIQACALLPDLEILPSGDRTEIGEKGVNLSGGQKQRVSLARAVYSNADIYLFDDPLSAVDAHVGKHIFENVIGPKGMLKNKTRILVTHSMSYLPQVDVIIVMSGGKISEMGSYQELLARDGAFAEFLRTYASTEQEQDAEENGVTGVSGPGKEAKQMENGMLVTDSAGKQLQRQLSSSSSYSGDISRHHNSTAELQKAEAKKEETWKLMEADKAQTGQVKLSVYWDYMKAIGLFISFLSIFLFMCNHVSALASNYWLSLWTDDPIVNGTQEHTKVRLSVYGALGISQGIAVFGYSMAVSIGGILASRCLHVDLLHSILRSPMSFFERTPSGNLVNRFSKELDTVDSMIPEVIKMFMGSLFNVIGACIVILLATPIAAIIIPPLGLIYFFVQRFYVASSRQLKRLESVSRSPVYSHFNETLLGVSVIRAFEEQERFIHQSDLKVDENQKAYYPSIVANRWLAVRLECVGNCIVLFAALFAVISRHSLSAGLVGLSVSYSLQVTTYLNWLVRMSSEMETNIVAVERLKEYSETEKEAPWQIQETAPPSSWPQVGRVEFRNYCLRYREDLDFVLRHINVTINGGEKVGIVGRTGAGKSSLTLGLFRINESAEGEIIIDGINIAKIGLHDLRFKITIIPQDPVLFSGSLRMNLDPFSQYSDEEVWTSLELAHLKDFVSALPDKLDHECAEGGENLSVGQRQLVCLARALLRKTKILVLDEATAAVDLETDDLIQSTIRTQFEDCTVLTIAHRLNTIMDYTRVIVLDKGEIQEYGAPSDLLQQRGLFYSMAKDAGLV

In data set [1], `N.N.[Cl][Pt][Cl]` [Cis-Pt, cis-platinum, reference compound] registered an ALT of 41 ± 9 U/L, an AP of 129 ± 14 U/L, an AST of 91 ± 34 U/L and a CPK of 259 ± 98 U/L. The LDH in data set [1] is reported as 7092 ± 542 U/L. For the same molecule, in the data set with A549/DX cells [2], the “Tumor growth, cis-Pt alone” value is “resistance of A549/DX against the standard chemotherapy regimen”. Further, the “Sensitivity to cis-Pt co-administrated with MK571” value in the data set on A549/DX cells [3] (cis-Pt 25 μM + MK571 25 μM) is on record as “restored when co-administrated with MK571”.
On to `CN(C)C(=O)CCSC(SCCC(=O)O)c1cccc(/C=C/c2ccc3ccc(Cl)cc3n2)c1` (stereo not drawn) [MK571, reference compound], for which, in data set [1], the ALT is 41 ± 7 U/L, the AP is on record as 117 ± 33 U/L, the AST was 101 ± 33 U/L and the CPK is on record as 334 ± 81 U/L. Besides, the LDH in data set [1] is 7141 ± 927 U/L. The “Cytotoxicity / antiproliferative effect alone” value in the data set with A549/DX cells [3] (25 μM alone) is given as “not cytotoxic”.
In the case of `Fc1ccc(-n2cc(CCCCN3CCC4(CC3)OCc3ccccc34)c3ccccc32)cc1` [Siramesine, siramesine, reference compound], the “SR (selectivity ratio)” value in the data set on MDCK-MRP1 cells was 0.56. Moreover, the EC50 (in general, the concentration needed to bring the measured effect to its halfway point) on MRP1 was 23.2 ± 4.5 µM.

Values taken from article PMC7247425, “MRP1-Collateral Sensitizers as a Novel Therapeutic Approach in Resistant Cancer Therapy: An In Vitro and In Vivo Study in Lung Resistant Tumor” (International Journal of Molecular Sciences, 2020).
